Cc1ccccc1S(N)(=O)=O
Details	solubility (mole fraction)
in acetone, 273.15 K	0.0728
in acetone, 279.15 K	0.0787
in acetone, 283.75 K	0.0844
in acetone, 289.15 K	0.091
in acetone, 298.95 K	0.105
in acetone, 303.25 K	0.113
in acetone, 308.65 K	0.124
in acetone, 313.15 K	0.134
in acetone, 318.15 K	0.146
in acetone, 323.15 K	0.158
in acetonitrile, 273.15 K	0.0167
in acetonitrile, 279.15 K	0.0196
in acetonitrile, 283.95 K	0.022
in acetonitrile, 293.35 K	0.0297
in acetonitrile, 298.95 K	0.0347
in acetonitrile, 303.25 K	0.0401
in acetonitrile, 308.95 K	0.0476
in acetonitrile, 313.15 K	0.0533
in acetonitrile, 319.15 K	0.0634
in acetonitrile, 323.85 K	0.0723
in cyclohexanone, 273.15 K	0.0803
in cyclohexanone, 279.15 K	0.0861
in cyclohexanone, 283.95 K	0.0927
in cyclohexanone, 289.15 K	0.0992
in cyclohexanone, 293.35 K	0.105
in cyclohexanone, 298.95 K	0.114
in cyclohexanone, 303.25 K	0.122
in cyclohexanone, 308.95 K	0.133
in cyclohexanone, 313.15 K	0.143
in cyclohexanone, 319.15 K	0.156
in cyclohexanone, 323.85 K	0.168
in cyclopentanone, 273.15 K	0.098
in cyclopentanone, 279.15 K	0.104
in cyclopentanone, 283.95 K	0.111
in cyclopentanone, 289.15 K	0.118
in cyclopentanone, 293.35 K	0.124
in cyclopentanone, 298.95 K	0.133
in cyclopentanone, 303.25 K	0.142
in cyclopentanone, 308.95 K	0.152
in cyclopentanone, 313.15 K	0.16
in cyclopentanone, 319.15 K	0.175
in cyclopentanone, 323.85 K	0.187
in dichloromethane, 273.15 K	0.00161
in dichloromethane, 279.15 K	0.00199
in dichloromethane, 283.95 K	0.00233
in dichloromethane, 289.15 K	0.00304
in dichloromethane, 293.35 K	0.00365
in dichloromethane, 298.95 K	0.00463
in dichloromethane, 303.25 K	0.00547
in dichloromethane, 308.95 K	0.00697
in dichloromethane, 312.15 K	0.00785
in ethanol, 273.15 K	0.00764
in ethanol, 279.15 K	0.00971
in ethanol, 283.75 K	0.0116
in ethanol, 289.15 K	0.0147
in ethanol, 298.95 K	0.0196
in ethanol, 303.25 K	0.0226
in ethanol, 308.65 K	0.0275
in ethanol, 313.15 K	0.0315
in ethanol, 318.15 K	0.0374
in ethanol, 323.15 K	0.0439
in ethyl acetate, 273.15 K	0.0221
in ethyl acetate, 279.15 K	0.0248
in ethyl acetate, 283.75 K	0.0278
in ethyl acetate, 289.15 K	0.0307
in ethyl acetate, 298.95 K	0.0377
in ethyl acetate, 303.25 K	0.0416
in ethyl acetate, 308.65 K	0.0471
in ethyl acetate, 313.15 K	0.0518
in ethyl acetate, 318.15 K	0.0578
in ethyl acetate, 323.15 K	0.0643
in ethyl formate, 273.15 K	0.013
in ethyl formate, 279.15 K	0.0146
in ethyl formate, 283.95 K	0.0165
in ethyl formate, 289.15 K	0.0185
in ethyl formate, 293.35 K	0.0207
in ethyl formate, 298.95 K	0.0239
in ethyl formate, 303.25 K	0.0273
in ethyl formate, 308.95 K	0.0316
in ethyl formate, 313.15 K	0.0354
in ethyl formate, 319.15 K	0.0408
in ethyl formate, 323.85 K	0.0461
in isobutanol, 273.15 K	0.00205
in isobutanol, 279.15 K	0.00284
in isobutanol, 283.75 K	0.00363
in isobutanol, 289.15 K	0.00476
in isobutanol, 298.95 K	0.00768
in isobutanol, 303.25 K	0.00934
in isobutanol, 308.65 K	0.012
in isobutanol, 313.15 K	0.0144
in isobutanol, 318.15 K	0.0178
in isobutanol, 323.15 K	0.0215
in isopentanol, 273.15 K	0.00248
in isopentanol, 279.15 K	0.00333
in isopentanol, 283.95 K	0.00419
in isopentanol, 289.15 K	0.00534
in isopentanol, 293.35 K	0.00642
in isopentanol, 298.95 K	0.00805
in isopentanol, 303.25 K	0.00978
in isopentanol, 308.95 K	0.0125
in isopentanol, 313.15 K	0.0144
in isopentanol, 319.15 K	0.0183
in isopentanol, 323.85 K	0.0214
in isopropanol, 273.15 K	0.00343
in isopropanol, 279.15 K	0.00464
in isopropanol, 283.75 K	0.00581
in isopropanol, 289.15 K	0.00756
in isopropanol, 298.95 K	0.0115
in isopropanol, 303.25 K	0.0137
in isopropanol, 308.65 K	0.0175
in isopropanol, 313.15 K	0.0208
in isopropanol, 318.15 K	0.0252
in isopropanol, 323.15 K	0.0304
in methanol, 273.15 K	0.0128
in methanol, 279.15 K	0.016
in methanol, 283.75 K	0.0189
in methanol, 289.15 K	0.0233
in methanol, 298.95 K	0.0311
in methanol, 303.25 K	0.0355
in methanol, 308.65 K	0.0422
in methanol, 313.15 K	0.0489
in methanol, 318.15 K	0.0567
in methanol, 323.15 K	0.0658
in methyl acetate, 273.15 K	0.027
in methyl acetate, 279.15 K	0.0303
in methyl acetate, 283.95 K	0.0337
in methyl acetate, 289.15 K	0.0374
in methyl acetate, 293.35 K	0.0405
in methyl acetate, 298.95 K	0.046
in methyl acetate, 303.25 K	0.0513
in methyl acetate, 308.95 K	0.058
in methyl acetate, 313.15 K	0.0637
in methyl acetate, 319.15 K	0.0731
in methyl acetate, 323.85 K	0.0809
in n-butanol, 273.15 K	0.00341
in n-butanol, 279.15 K	0.00451
in n-butanol, 283.75 K	0.00556
in n-butanol, 289.15 K	0.00731
in n-butanol, 298.95 K	0.0104
in n-butanol, 303.25 K	0.0123
in n-butanol, 308.65 K	0.0154
in n-butanol, 313.15 K	0.0181
in n-butanol, 318.15 K	0.0218
in n-butanol, 323.15 K	0.0262
in n-pentanol, 273.15 K	0.0027
in n-pentanol, 279.15 K	0.00363
in n-pentanol, 283.95 K	0.00456
in n-pentanol, 289.15 K	0.00568
in n-pentanol, 293.35 K	0.00705
in n-pentanol, 298.95 K	0.00875
in n-pentanol, 303.25 K	0.0108
in n-pentanol, 308.95 K	0.0134
in n-pentanol, 313.15 K	0.0158
in n-pentanol, 319.15 K	0.0195
in n-pentanol, 323.85 K	0.023
in n-propanol, 273.15 K	0.00418
in n-propanol, 279.15 K	0.0055
in n-propanol, 283.75 K	0.00674
in n-propanol, 289.15 K	0.00847
in n-propanol, 298.95 K	0.0126
in n-propanol, 303.25 K	0.0148
in n-propanol, 308.65 K	0.0182
in n-propanol, 313.15 K	0.0215
in n-propanol, 318.15 K	0.0257
in n-propanol, 323.15 K	0.03

Reference: BigSolDB 2.1
